From PMC12155096 (International Journal of Molecular Sciences, 2025)

biological target: human CYP2D6 (Homo sapiens, UniProt P10635); assay: not given; details: not given
Sequence (P10635 whole entry): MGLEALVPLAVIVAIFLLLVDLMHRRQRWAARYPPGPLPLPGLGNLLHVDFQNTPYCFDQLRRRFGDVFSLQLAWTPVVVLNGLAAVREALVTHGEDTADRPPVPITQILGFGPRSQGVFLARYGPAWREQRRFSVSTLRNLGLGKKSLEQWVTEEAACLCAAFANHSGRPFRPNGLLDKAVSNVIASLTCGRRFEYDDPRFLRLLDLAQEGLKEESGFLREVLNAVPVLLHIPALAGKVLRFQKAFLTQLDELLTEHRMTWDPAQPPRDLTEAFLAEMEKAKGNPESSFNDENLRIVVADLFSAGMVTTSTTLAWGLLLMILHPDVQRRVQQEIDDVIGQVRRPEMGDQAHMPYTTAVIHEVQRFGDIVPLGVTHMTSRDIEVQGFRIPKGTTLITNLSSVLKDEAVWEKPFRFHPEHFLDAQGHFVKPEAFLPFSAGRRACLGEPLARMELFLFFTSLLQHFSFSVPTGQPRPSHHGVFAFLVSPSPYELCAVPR

Row | Compound | CYP2D6 AC50 (half-maximal activity concentration) | AC50 [µM]
1 | CCCCCCCCc1ccc(S(=O)(=O)[O-])cc1.[Na+] [Sodium 4-octylbenzenesulfonate] | Inactive | –
2 | C=Cc1ccc(S(=O)(=O)[O-])cc1.[Na+] [Sodium 4-vinylbenzenesulfonate] | Inactive | –
3 | CCOC(=O)c1ccc(NC(=O)CN2CCCCC2)cc1 [Sulcaine] | – | 16.8
4 | O=C(O)CC(C(=O)O)S(=O)(=O)O (centres unmarked) [Sulfosuccinic acid] | – | 60.6
5 | CN(C)C1CSSSC1.O=C(O)C(=O)O [Thiocyclam oxalate] | – | 38.5
6 | Cc1ccc(C(C)OC(=O)[C@]2(C)CC[C@H](C(=O)O)C2(C)C)cc1.OCCNCCO (some centres unmarked) [Tocanfil] | Inactive | –
7 | CCCCCCCCCCCC(=O)O.OCCN(CCO)CCO [Triethanolamine Laurate] | Inactive | –
8 | O=C(OCCOCCOCCOC(=O)c1ccccc1)c1ccccc1 [Triethylene glycol dibenzoate] | Inconclusive inhibitor | –
9 | COC(=O)c1ccc(C(=O)OC)c(C(=O)OC)c1 [Trimethyl benzene-1,2,4-tricarboxylate] | Inactive | –
10 | O=C(CCC1CCN(Cc2ccccc2)CC1)c1ccc2c(c1)NCCCC2.O=C(O)/C=C/C(=O)O [Zanapezil fumerate] | – | 7.12
11 | C[C@H](CSC(=O)c1ccccc1)C(=O)N1C[C@@H](Sc2ccccc2)C[C@H]1C(=O)O [Zofenopril] | Inactive | –
12 | CCCCC/C(=C\c1ccccc1)CO [alpha-Amylcinnamyl alcohol] | Inconclusive inhibitor | –
13 | CC1(C)[C@H](C(=O)OCc2cccc(Oc3ccccc3)c2)[C@@H]1C=C(Cl)Cl [cis-Permethrin in cyclohexane] | Inactive | –
14 | CC(C)(C)c1ccc(OP(=O)(Oc2ccccc2)Oc2ccccc2)cc1 [tert-Butylphenyl diphenyl phosphate] | Inactive | –
15 | Mancozeb | Inconclusive inhibitor | –
16 | Naphthenic acids | Inactive | –

biological target: T1, human CYP2C19 (Homo sapiens, UniProt P33261); assay: biochemical; details: CYP2C19 AC50 (half-maximal activity concentration)
T1 sequence (P33261 whole entry): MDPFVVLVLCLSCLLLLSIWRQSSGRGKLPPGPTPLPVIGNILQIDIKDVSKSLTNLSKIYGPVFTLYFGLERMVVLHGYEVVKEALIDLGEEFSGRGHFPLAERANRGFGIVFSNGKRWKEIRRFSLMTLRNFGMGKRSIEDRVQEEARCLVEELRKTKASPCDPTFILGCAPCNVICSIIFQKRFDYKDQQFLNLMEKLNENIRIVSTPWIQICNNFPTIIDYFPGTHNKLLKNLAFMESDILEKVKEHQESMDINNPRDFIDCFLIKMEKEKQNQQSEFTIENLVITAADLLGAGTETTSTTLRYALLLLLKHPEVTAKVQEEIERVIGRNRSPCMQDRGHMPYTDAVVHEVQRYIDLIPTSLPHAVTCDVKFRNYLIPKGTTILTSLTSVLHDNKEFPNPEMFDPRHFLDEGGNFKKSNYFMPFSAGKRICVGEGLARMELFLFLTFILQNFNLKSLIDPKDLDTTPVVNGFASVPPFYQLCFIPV

Row | Compound | AC50 [µM]
17 | C[C@H](CSC(=O)c1ccccc1)C(=O)N1C[C@@H](Sc2ccccc2)C[C@H]1C(=O)O [Zofenopril] | 1.71

biological target: human CYP2C9 (Homo sapiens, UniProt P11712); assay: not given; details: not given
Sequence (P11712 whole entry): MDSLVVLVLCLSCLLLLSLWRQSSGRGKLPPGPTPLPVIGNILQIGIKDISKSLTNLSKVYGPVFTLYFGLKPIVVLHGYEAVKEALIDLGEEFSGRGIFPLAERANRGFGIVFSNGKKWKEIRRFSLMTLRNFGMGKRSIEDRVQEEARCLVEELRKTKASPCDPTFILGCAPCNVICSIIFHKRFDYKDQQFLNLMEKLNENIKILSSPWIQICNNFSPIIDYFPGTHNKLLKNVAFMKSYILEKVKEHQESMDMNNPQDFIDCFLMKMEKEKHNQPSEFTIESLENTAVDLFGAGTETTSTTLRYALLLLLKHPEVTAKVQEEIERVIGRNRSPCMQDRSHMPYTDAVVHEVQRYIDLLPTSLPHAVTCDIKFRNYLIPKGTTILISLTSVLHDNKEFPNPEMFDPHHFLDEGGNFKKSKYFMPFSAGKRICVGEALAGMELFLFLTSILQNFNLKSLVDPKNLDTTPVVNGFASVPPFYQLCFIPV

Row | Compound | AC50 [µM] | CYP2C9 AC50 (half-maximal activity concentration)
18 | CCCCCCCCc1ccc(S(=O)(=O)[O-])cc1.[Na+] [Sodium 4-octylbenzenesulfonate] | 76.8 | –
19 | C=Cc1ccc(S(=O)(=O)[O-])cc1.[Na+] [Sodium 4-vinylbenzenesulfonate] | – | Inactive
20 | CCOC(=O)c1ccc(NC(=O)CN2CCCCC2)cc1 [Sulcaine] | 37.8 | –
21 | O=C(O)CC(C(=O)O)S(=O)(=O)O (centres unmarked) [Sulfosuccinic acid] | – | Inactive
22 | CN(C)C1CSSSC1.O=C(O)C(=O)O [Thiocyclam oxalate] | 28.3 | –
23 | Cc1ccc(C(C)OC(=O)[C@]2(C)CC[C@H](C(=O)O)C2(C)C)cc1.OCCNCCO (some centres unmarked) [Tocanfil] | 36.1 | –
24 | CCCCCCCCCCCC(=O)O.OCCN(CCO)CCO [Triethanolamine Laurate] | 115 | –
25 | O=C(OCCOCCOCCOC(=O)c1ccccc1)c1ccccc1 [Triethylene glycol dibenzoate] | 2.75 | –
26 | COC(=O)c1ccc(C(=O)OC)c(C(=O)OC)c1 [Trimethyl benzene-1,2,4-tricarboxylate] | – | Inactive
27 | O=C(CCC1CCN(Cc2ccccc2)CC1)c1ccc2c(c1)NCCCC2.O=C(O)/C=C/C(=O)O [Zanapezil fumerate] | – | Inconclusive inhibitor
28 | C[C@H](CSC(=O)c1ccccc1)C(=O)N1C[C@@H](Sc2ccccc2)C[C@H]1C(=O)O [Zofenopril] | – | Inactive
29 | CCCCC/C(=C\c1ccccc1)CO [alpha-Amylcinnamyl alcohol] | 36.6 | –
30 | CC1(C)[C@H](C(=O)OCc2cccc(Oc3ccccc3)c2)[C@@H]1C=C(Cl)Cl [cis-Permethrin in cyclohexane] | – | Inactive
31 | CC(C)(C)c1ccc(OP(=O)(Oc2ccccc2)Oc2ccccc2)cc1 [tert-Butylphenyl diphenyl phosphate] | 5.93 | –
32 | Mancozeb | 3.48 | –
33 | Naphthenic acids | 36.4 | –

biological target: T1, human CYP2C19; assay: not given; details: not given

Row | Compound | CYP2C19 AC50 (half-maximal activity concentration) | AC50 [µM]
34 | CCCCCCCCc1ccc(S(=O)(=O)[O-])cc1.[Na+] [Sodium 4-octylbenzenesulfonate] | Inactive | –
35 | C=Cc1ccc(S(=O)(=O)[O-])cc1.[Na+] [Sodium 4-vinylbenzenesulfonate] | Inactive | –
36 | CCOC(=O)c1ccc(NC(=O)CN2CCCCC2)cc1 [Sulcaine] | Inactive | –
37 | O=C(O)CC(C(=O)O)S(=O)(=O)O (centres unmarked) [Sulfosuccinic acid] | – | 11.9
38 | CN(C)C1CSSSC1.O=C(O)C(=O)O [Thiocyclam oxalate] | – | 38.5
39 | Cc1ccc(C(C)OC(=O)[C@]2(C)CC[C@H](C(=O)O)C2(C)C)cc1.OCCNCCO (some centres unmarked) [Tocanfil] | Inactive | –
40 | CCCCCCCCCCCC(=O)O.OCCN(CCO)CCO [Triethanolamine Laurate] | – | 135
41 | O=C(OCCOCCOCCOC(=O)c1ccccc1)c1ccccc1 [Triethylene glycol dibenzoate] | – | 20.8
42 | COC(=O)c1ccc(C(=O)OC)c(C(=O)OC)c1 [Trimethyl benzene-1,2,4-tricarboxylate] | – | 32.3
43 | O=C(CCC1CCN(Cc2ccccc2)CC1)c1ccc2c(c1)NCCCC2.O=C(O)/C=C/C(=O)O [Zanapezil fumerate] | Inactive | –
44 | CCCCC/C(=C\c1ccccc1)CO [alpha-Amylcinnamyl alcohol] | – | 1.66
45 | CC1(C)[C@H](C(=O)OCc2cccc(Oc3ccccc3)c2)[C@@H]1C=C(Cl)Cl [cis-Permethrin in cyclohexane] | Inactive | –
46 | CC(C)(C)c1ccc(OP(=O)(Oc2ccccc2)Oc2ccccc2)cc1 [tert-Butylphenyl diphenyl phosphate] | – | 5.26
47 | Mancozeb | – | 4.72
48 | Naphthenic acids | – | 46.4

biological target: CYP3A4 (Homo sapiens, UniProt P08684); assay: not given; details: not given
Sequence (P08684 whole entry): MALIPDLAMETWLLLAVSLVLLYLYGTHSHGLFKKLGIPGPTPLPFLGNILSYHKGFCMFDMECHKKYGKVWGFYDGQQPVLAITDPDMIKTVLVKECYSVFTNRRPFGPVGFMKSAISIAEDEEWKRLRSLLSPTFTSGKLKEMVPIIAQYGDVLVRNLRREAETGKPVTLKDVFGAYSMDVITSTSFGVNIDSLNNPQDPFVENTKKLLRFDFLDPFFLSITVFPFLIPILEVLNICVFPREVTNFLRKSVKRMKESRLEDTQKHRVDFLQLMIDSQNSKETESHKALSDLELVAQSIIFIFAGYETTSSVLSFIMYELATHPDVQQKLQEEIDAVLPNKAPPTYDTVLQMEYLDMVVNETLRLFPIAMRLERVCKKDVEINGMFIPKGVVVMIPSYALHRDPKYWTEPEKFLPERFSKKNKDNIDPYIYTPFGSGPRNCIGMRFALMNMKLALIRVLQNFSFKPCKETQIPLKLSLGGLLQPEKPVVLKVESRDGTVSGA

Row | Compound | AC50 [µM] | CYP3A4 AC50 (half-maximal activity concentration)
49 | CCCCCCCCc1ccc(S(=O)(=O)[O-])cc1.[Na+] [Sodium 4-octylbenzenesulfonate] | 63.9 | –
50 | C=Cc1ccc(S(=O)(=O)[O-])cc1.[Na+] [Sodium 4-vinylbenzenesulfonate] | 30.1 | –
51 | CCOC(=O)c1ccc(NC(=O)CN2CCCCC2)cc1 [Sulcaine] | 26.4 | –
52 | O=C(O)CC(C(=O)O)S(=O)(=O)O (centres unmarked) [Sulfosuccinic acid] | 43.2 | –
53 | CN(C)C1CSSSC1.O=C(O)C(=O)O [Thiocyclam oxalate] | 33 | –
54 | Cc1ccc(C(C)OC(=O)[C@]2(C)CC[C@H](C(=O)O)C2(C)C)cc1.OCCNCCO (some centres unmarked) [Tocanfil] | 14.4 | –
55 | CCCCCCCCCCCC(=O)O.OCCN(CCO)CCO [Triethanolamine Laurate] | 89.2 | –
56 | O=C(OCCOCCOCCOC(=O)c1ccccc1)c1ccccc1 [Triethylene glycol dibenzoate] | – | Inactive
57 | COC(=O)c1ccc(C(=O)OC)c(C(=O)OC)c1 [Trimethyl benzene-1,2,4-tricarboxylate] | 49.9 | –
58 | O=C(CCC1CCN(Cc2ccccc2)CC1)c1ccc2c(c1)NCCCC2.O=C(O)/C=C/C(=O)O [Zanapezil fumerate] | 3.4 | –
59 | C[C@H](CSC(=O)c1ccccc1)C(=O)N1C[C@@H](Sc2ccccc2)C[C@H]1C(=O)O [Zofenopril] | – | Inactive
60 | CCCCC/C(=C\c1ccccc1)CO [alpha-Amylcinnamyl alcohol] | 13.7 | –
61 | CC1(C)[C@H](C(=O)OCc2cccc(Oc3ccccc3)c2)[C@@H]1C=C(Cl)Cl [cis-Permethrin in cyclohexane] | – | Inactive
62 | CC(C)(C)c1ccc(OP(=O)(Oc2ccccc2)Oc2ccccc2)cc1 [tert-Butylphenyl diphenyl phosphate] | 8.02 | –
63 | Mancozeb | 5.17 | –
64 | Naphthenic acids | 84.8 | –

biological target: T2, human CYP1A2 (Homo sapiens, UniProt P05177); assay: not given; details: not given
T2 sequence (P05177 1-516): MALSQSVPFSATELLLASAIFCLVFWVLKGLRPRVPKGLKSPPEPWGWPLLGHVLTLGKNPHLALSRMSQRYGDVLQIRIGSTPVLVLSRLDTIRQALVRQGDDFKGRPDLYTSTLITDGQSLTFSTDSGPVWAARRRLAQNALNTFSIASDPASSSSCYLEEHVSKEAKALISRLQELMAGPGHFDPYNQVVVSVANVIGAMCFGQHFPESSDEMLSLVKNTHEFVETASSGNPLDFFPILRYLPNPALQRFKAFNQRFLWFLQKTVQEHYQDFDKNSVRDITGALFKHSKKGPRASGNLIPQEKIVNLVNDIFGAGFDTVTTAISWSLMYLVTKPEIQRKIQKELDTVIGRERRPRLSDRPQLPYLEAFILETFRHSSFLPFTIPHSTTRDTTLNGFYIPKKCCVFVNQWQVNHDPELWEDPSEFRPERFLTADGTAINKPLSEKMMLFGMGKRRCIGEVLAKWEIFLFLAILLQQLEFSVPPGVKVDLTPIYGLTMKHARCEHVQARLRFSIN

Row | Compound | CYP1A2 AC50 (half-maximal activity concentration) | AC50 [µM]
65 | CCCCCCCCc1ccc(S(=O)(=O)[O-])cc1.[Na+] [Sodium 4-octylbenzenesulfonate] | Inactive | –
66 | C=Cc1ccc(S(=O)(=O)[O-])cc1.[Na+] [Sodium 4-vinylbenzenesulfonate] | – | 63.5
67 | CCOC(=O)c1ccc(NC(=O)CN2CCCCC2)cc1 [Sulcaine] | – | 22.2
68 | O=C(O)CC(C(=O)O)S(=O)(=O)O (centres unmarked) [Sulfosuccinic acid] | – | 33
69 | CN(C)C1CSSSC1.O=C(O)C(=O)O [Thiocyclam oxalate] | – | 61
70 | Cc1ccc(C(C)OC(=O)[C@]2(C)CC[C@H](C(=O)O)C2(C)C)cc1.OCCNCCO (some centres unmarked) [Tocanfil] | Inactive | –
71 | CCCCCCCCCCCC(=O)O.OCCN(CCO)CCO [Triethanolamine Laurate] | Inconclusive inhibitor | –
72 | O=C(OCCOCCOCCOC(=O)c1ccccc1)c1ccccc1 [Triethylene glycol dibenzoate] | – | 17.8
73 | COC(=O)c1ccc(C(=O)OC)c(C(=O)OC)c1 [Trimethyl benzene-1,2,4-tricarboxylate] | – | 7.19
74 | O=C(CCC1CCN(Cc2ccccc2)CC1)c1ccc2c(c1)NCCCC2.O=C(O)/C=C/C(=O)O [Zanapezil fumerate] | Inconclusive inhibitor | –
75 | C[C@H](CSC(=O)c1ccccc1)C(=O)N1C[C@@H](Sc2ccccc2)C[C@H]1C(=O)O [Zofenopril] | Inactive | –
76 | CCCCC/C(=C\c1ccccc1)CO [alpha-Amylcinnamyl alcohol] | – | 3.72
77 | CC1(C)[C@H](C(=O)OCc2cccc(Oc3ccccc3)c2)[C@@H]1C=C(Cl)Cl [cis-Permethrin in cyclohexane] | Inactive | –
78 | CC(C)(C)c1ccc(OP(=O)(Oc2ccccc2)Oc2ccccc2)cc1 [tert-Butylphenyl diphenyl phosphate] | – | 18
79 | Mancozeb | – | 14.9
80 | Naphthenic acids | – | 59.4
